Tests used:
[1] = instrument: DT, stepped-field
[2] = instrument: DT, single field, calibrated with Agilent tune mix (Agilent)

SMILES | collision cross section (N2) ([1]; [M+Na]+) | collision cross section (N2) ([1]; [M+H]+) | further results
O=c1[nH]cc(CO)c(=O)[nH]1 [5-Hydroxymethyluracil] | 142.06 Å² |  | collision cross section (N2) ([2]; [M-H]-): 119.21 Å²
Cc1cn([C@@H]2O[C@H](CO)[C@@H](O)[C@H]2O)c(=O)nc1N [5-Methylcytidine] | 168.97 Å² | 157.51 Å² | collision cross section (N2) ([2]; [M+H]+): 157.4 Å²; collision cross section (N2) ([2]; [M-H]-): 152.63 Å²
CN1c2c([nH]c(N)nc2=O)NCC1CNc1ccc(C(=O)N[C@H](CCC(=O)O)C(=O)O)cc1 (some centres not stated) [5-Methyltetrahydrofolate] | 200.04 Å² | 196.99 Å² | collision cross section (N2) ([2]; [M+H]+): 196.4 Å²; collision cross section (N2) ([2]; [M+Na-2H]-): 201.03 Å²
NCCCCN=C(N)N [Agmatine] |  | 129.96 Å² | collision cross section (N2) ([2]; [M+H]+): 128.2 Å²
C[C@]12CCC(=O)C=C1CC[C@@H]1[C@@H]2[C@@H](O)C[C@]2(C=O)[C@@H](C(=O)CO)CC[C@@H]12 [Aldosterone] | 204.09 Å² | 196.05 Å² | collision cross section (N2) ([2]; [M+H]+): 187.7 Å²; collision cross section (N2) ([2]; [M-H]-): 181.09 Å²
C[N+](C)(C)CC(=O)[O-] [Betaine] | 135.56 Å² | 121.6 Å² | collision cross section (N2) ([2]; [M+H]+): 121.4 Å²
C=CC1=C(C)C(/C=c2\[nH]/c(=C\c3[nH]c(/C=C4\NC(=O)C(C)=C4C=C)c(C)c3CCC(=O)O)c(CCC(=O)O)c2C)=NC1=O [Biliverdin] | 248.83 Å² | 246.5 Å² | collision cross section (N2) ([2]; [M+Na]+): 246.7 Å²; collision cross section (N2) ([2]; [M-H]-): 242.04 Å²
O=C(O)CCCC[C@@H]1SC[C@@H]2NC(=O)N[C@@H]21 [D-Biotin] | 164.45 Å² | 154.16 Å² | collision cross section (N2) ([2]; [M+H]+): 150.4 Å²; collision cross section (N2) ([2]; [M-H]-): 152.96 Å²
OC[C@H]1O[C@H](O[C@H]2[C@H](O)[C@@H](O)[C@H](O)O[C@@H]2CO)[C@H](O)[C@@H](O)[C@@H]1O [D-Maltose] | 179.19 Å² |  | collision cross section (N2) ([2]; [M+K-2H]-): 175.19 Å²; collision cross section (N2) ([2]; [M+Na]+): 178.1 Å²
OC[C@H]1OC(O)[C@@H](O)[C@@H](O)[C@@H]1O (stereo partly drawn) [D-Mannose] | 141.82 Å² |  | collision cross section (N2) ([2]; [M+Na]+): 140.8 Å²
NCCc1ccc(O)c(O)c1 [Dopamine] |  | 125.24 Å² | collision cross section (N2) ([2]; [M-H]-): 129.51 Å²
OC[C@H]1O[C@@H](O[C@H]2[C@H](O)[C@H](O)[C@H](O[C@H]3[C@H](O)[C@H](O)[C@H](O[C@H]4[C@H](O)[C@H](O)[C@H](O[C@H]5[C@H](O)[C@H](O)[C@H](O[C@H]6[C@H](O)[C@H](O)C(O)O[C@@H]6CO)O[C@@H]5CO)O[C@@H]4CO)O[C@@H]3CO)O[C@@H]2CO)[C@@H](O)[C@@H](O)[C@@H]1O (some centres not stated) [Mannohexaose] | 281.7 Å² |  | 
OC[C@H]1O[C@H](OC[C@H]2OC(O)[C@H](O)[C@@H](O)[C@@H]2O)[C@H](O)[C@@H](O)[C@H]1O (some centres not stated) [Melibiose] | 181.14 Å² |  | collision cross section (N2) ([2]; [M+Na]+): 176.8 Å²
CCCCC/C=C\C/C=C\CCCCCCCC(=O)OC [Methyl Linoleate] |  | 187.2 Å² | 
C[C@@](O)(CCO)CC(=O)O [Mevalonic Acid] | 137.7 Å² |  | 
CC1(O)CCOC(=O)C1 (configuration not stated) [Mevalonolactone] | 143.67 Å² |  | 
C=CCc1cc(OC)c2c(c1)OCO2 [Myristicin] |  | 141.69 Å² | 
CC(=O)Nc1ccc(S(=O)(=O)Nc2cc(C)on2)cc1 [N-Acetyl Sulfamethoxazole] | 178.52 Å² | 171.45 Å² | 
CC(=O)N[C@H]1C(O)O[C@H](CO)[C@@H](O)[C@@H]1O (stereo partly drawn) [N-Acetyl-D-glucosamine] | 160.36 Å² |  | collision cross section (N2) ([2]; [M+H]+): 147.3 Å²
CC(=O)N[C@@H](CCC(=O)O)C(=O)O [N-Acetyl-L-glutamate] | 149.63 Å² | 139.03 Å² | collision cross section (N2) ([2]; [M+Na-2H]-): 141 Å²
CN[C@@H](CCC(=O)O)C(=O)O [N-Methyl-L-glutamate] |  | 133.71 Å² | 
c1ccc2ccccc2c1 [Naphthalene] |  | 120.28 Å² | 
NC(=O)c1ccc[n+]([C@@H]2O[C@H](COP(=O)(O)OP(=O)(O)OC[C@H]3O[C@@H](n4cnc5c(N)ncnc54)[C@H](O)[C@@H]3O)[C@@H](O)[C@H]2O)c1 [Nicotinamide Adenine Dinucleotide (NAD+)] |  | 241.93 Å² | 
NC(=O)c1cccnc1 [Nicotinamide] | 137.3 Å² | 129.32 Å² | collision cross section (N2) ([2]; [M+H]+): 125.3 Å²

SMILES | collision cross section (N2) ([1]; [M+Na]+) | collision cross section (N2) ([1]; [M+H]+) | further results
CCCCCCCC/C=C\CCCCCCCC(=O)OC(CC(=O)[O-])C[N+](C)(C)C (configuration not stated) [Oleoylcarnitine] | 228.6 Å² | 218.73 Å² | 
O=C(O)CC(=O)C(=O)O [Oxaloacetic Acid] |  | 139.45 Å² | 
CCCCCCCCCCCCCCCC(=O)O[C@H](COC(=O)CCCCCCCCCCC)COP(=O)(O)OC[C@H](N)C(=O)O [PS(14:0/14:0)] | 247.83 Å² |  | 
CCCCCCCCCCCCCCCC(=O)OC(CC(=O)[O-])C[N+](C)(C)C (configuration not stated) [Palmitoylcarnitine] | 230.37 Å² | 216.1 Å² | 
Cn1c(=O)[nH]c2ncn(C)c2c1=O [Paraxanthine] |  | 135.63 Å² | 
CCC(CC)Nc1c([N+](=O)[O-])cc(C)c(C)c1[N+](=O)[O-] [Pendimethalin] | 187.77 Å² | 162.6 Å² | 
CN(CC(=O)O)/C(N)=N/P(=O)(O)O [Phosphocreatine] |  | 153.77 Å² | collision cross section (N2) ([2]; [M+H]+): 144.4 Å²
Nc1c(Cl)c(Cl)nc(C(=O)O)c1Cl [Picloram] | 156.37 Å² | 142.83 Å² | 
CC(=O)[C@H]1CC[C@H]2[C@@H]3CCC4=CC(=O)CC[C@]4(C)[C@H]3CC[C@]12C [Progesterone] | 169.03 Å² | 186.73 Å² | collision cross section (N2) ([2]; [M+H]+): 181.2 Å²; collision cross section (N2) ([2]; [M-H]-): 182.13 Å²
c1cn[nH]c1 [Pyrazole] |  | 125.47 Å² | 
Cc1ncc(COP(=O)(O)O)c(C=O)c1O [Pyridoxal 5'-Phosphate] | 165.05 Å² | 154.76 Å² | 
O=P(O)(O)OP(=O)(O)O [Pyrophosphoric Acid] | 145.58 Å² |  | 
O=C(O)C1(O)C[C@@H](O)C(O)[C@H](O)C1 (some centres not stated) [Quinic Acid] | 153.72 Å² | 146.35 Å² | 
CC/C=C\C[C@H](O)[C@H](O)/C=C/C=C/C=C\C=C\[C@@H](O)C/C=C\CCC(=O)O [Resolvin D2] | 200.6 Å² |  | 
CCCCCCCCCCCCC=CC[C@@H](O)[C@H](COP(=O)([O-])OCC[N+](C)(C)C)NC(=O)CCCCCCCCCCCCCCCC [SM(d18:1/17:0)] | 291.89 Å² | 290.12 Å² | 
O=C[C@H](O[C@@H]1O[C@H](CO)[C@@H](O)[C@H](O)[C@H]1O)[C@@H](O)[C@H](O)[C@H](O)CO [Sophorose] | 183.57 Å² |  | 
CCNc1nc(NC(C)(C)C)nc(SC)n1 [Terbutryn] |  | 161.23 Å² | 
CC/C=C\C[C@H](O)/C=C/[C@H]1OC(O)C[C@H](O)[C@@H]1C/C=C\CCCC(=O)O (some centres not stated) [Thromboxane B3] | 197.33 Å² |  | 
C/C=C(\C)C(=O)NCC(=O)O [Tiglyl Glycine] | 146.68 Å² |  | 
O=C(O)[C@@H]1C[C@@H](O)CN1 [Trans-4-Hydroxy-L-proline] |  | 130.23 Å² | 
O=C(O)/C=C(\CC(=O)O)C(=O)O [Trans-Aconitic Acid] | 149.13 Å² | 153.02 Å² | 
O=c1[nH]c(=O)c2[nH]c(=O)[nH]c2[nH]1 [Uric Acid] | 143.5 Å² | 131 Å² | 
OC1OC[C@@H](O[C@@H]2OC[C@@H](O)[C@H](O)[C@H]2O)[C@H](O)[C@H]1O (some centres not stated) [Xylobiose] | 167.4 Å² |  | 
C[N+](C)(C)CCOP(=O)([O-])OC[C@H](O)CO [sn-Glycero-3-phosphocholine] | 161.8 Å² | 157.17 Å² | 

Source: the C3SDB collision cross section collection
